Laboratory results published in patent publication US20030055101A1, “Use of statins to inhibit formation of osteoclasts” (priority 2001, published 2003).
Counter-ions that a name gives are not always drawn.

Legend:
RAW 264.7 cells = assay: RANKL-induced osteoclastogenesis in RAW 264.7 cells (TRAP staining); type: cell-based
Method: Raw cells (2000/well) were stimulated with RANKL (50 ng/mL)±atorvastatin and S,S-enantiomer of atorvastatin for 5 days and TRAP staining was performed at the end of Day 5 and the data is expressed as % inhibition of number of TRAP-positive cells compared to control.
RAW cells were plated at a density of 2000 cells/well in a 48-well plate and cultured overnight in alpha-MEM medium containing antibiotics. Cells were treated with either RANKL (50 ng/mL)±atorvastatin or the S,S-enantiomer of atorvastatin (10, 1, and 0.01 μM) for 5 days and stained for TRAP enzyme. Purple stained cells with three or more nuclei were counted under the microscope and represented as % inhibition of osteoclastogenesis compared to control cells.
RAW cells were cultured in α-MEM containing 10% FBS, 100 IU penicillin, 100 μg/mL of streptomycin. Cells were plated at a density of 2000 cells/well in a 48-well plate. After overnight incubation, the cells were stimulated with RANKL (50 ng/mL)±atorvastatin, S,S-enantiomer of atorvastatin or OPG for 5 days and stained for TRAP at the end of Day 5.
(§1) After initial wash with 1×PBS, the cells were fixed for 30 seconds using acetone based fixing solution containing acetone, citric acid and 37% formaldehyde. After washing twice with distilled water that was prewarmed to 37° C., the cells were incubated in acetate buffer containing naphthol AS-B1 and Fast Garnet GBC solution for 45 minutes at 37° C. TRAP-positive cells are typically brown in color when viewed under the microscope. The total number of TRAP-positive cells with 3 or more nuclei in each well were counted. TRAP activity is a phenotypic marker of mature osteoclasts.

[1] = test system: primary murine bone marrow cell cultures; assay: RANKL-induced osteoclastogenesis in bone marrow cell cultures (TRAP staining); type: cell-based, mouse; conditions: for number of TRAP-positive cells formed: added 2 days post RANKL stimulation (5 days after isolation)
Method: Bone marrow cells were cultured with 100 ng/mL of M-CSF for 3 days. The cells were further cultured for 5 more days with either atorvastatin, its S,S-enantiomer or osteoprotegerin (OPG) in the presence of RANKL and M-CSF. Cells were then fixed and stained for TRAP. […] The data shown are mean ±SD (n=4 wells/treatment).
Bone marrow cells treated with M-CSF for 3 days were stimulated with RANKL as well as atorvastatin (0.01 nM, […], and 1 μM), its S,S-enantiomer or OPG. In some experiments atorvastatin was added 2 days post RANKL stimulation (5 days after isolation). On Day 8 postisolation, cells were fixed and stained for TRAP. TRAP-positive multinucleated cells were counted and represented. The data shown are mean of ±SD (n=4 wells/treatment).
Bone marrow cells were cultured in the presence of 100 ng/mL of recombinant murine M-CSF for 3 days after isolation. The cells were then stimulated with murine RANKL (100 ng/mL) in the presence of various doses of atorvastatin (0.01 nM, 1 nM, and 1 μM), S,S-enantiomer of atorvastatin, or osteoprotegerin (OPG) and further cultured for 5 more days and stained for TRAP activity (see FIG. 1).
Osteoclastogenesis involves a series of events which include differentiation, proliferation, activation, and fusion to form multinucleated cells that are capable of resorbing bone. To examine the stage at which atorvastatin inhibits osteoclastogenesis, atorvastatin was added at various times to mouse bone marrow cells in the presence of M-CSF and RANKL.
Briefly, after removing the femur aseptically, the adherent soft tissue was separated from the bone. Using a syringe and a needle, the marrow was flushed using alpha minimum essential medium (α-MEM). Osteoclasts were obtained by culturing bone marrow cells (0.15×10^6 cells/well) in α-MEM containing 10% fetal bovine serum (FBS), 100 IU penicillin, 100 μg/mL of streptomycin and 100 ng/mL of recombinant murine M-CSF for 3 days in 48-well plates. The osteoclasts thus obtained were further cultured with RANKL±atorvastatin, S,S-enantiomer of atorvastatin or osteoprotegerin (OPG), for 5 days. […] In some experiments, the compounds were added on Day 5 postisolation.
as §1, with “After” for “After initial wash with 1×PBS, the cells were fixed for 30 seconds using acetone based fixing solution containing acetone, citric acid and 37% formaldehyde. After”

[2] = test system: osteoclasts in ovariectomized rats; assay: Osteoclast numbers in ovariectomized rats (tibia histomorphometry); type: in vivo, rat; conditions: for osteoclast numbers: 5 weeks
Method: Rats were ovariectomized according to the standard protocol and were administered orally with various doses of atorvastatin (2.5, 5, and 10 mg/kg body weight) for 5 weeks. Tibiae were analyzed for osteoclast number by histomorphometry. Ethinyl estradiol (EE) (0.4 mg/kg), a known bone protective agent, was used as a positive control.
Ovariectomy-induced bone loss in rats is an established model of osteoporosis, wherein estrogen insufficiency leads to increased osteoclastogenesis, possibly due to enhanced cytokine production. To test whether statins decrease bone resorption in vivo, ovariectomized rats were given orally various doses of atorvastatin (2.5, 5, or 10 mg/kg body weight) for 5 weeks. At the end of the study, the animals were sacrificed, and histomorphometric analysis was performed on tibia obtained from the animals.
The rats were ovariectomized according to the standard protocol. Briefly, after anesthesia the rats were cleaned with antiseptic solution. A small incision was made on the back of the animal, and the ovaries were located carefully underneath the fat tissue. After proper clamping, ovaries were removed with a scalpel blade. Also, the fallopian tube with the uterine horn was sealed by electrocautery. Later, the skin incision was closed using wound clips. After recovery from the surgery, animals were randomized into 6 groups of 8 animals each (sham operated, OVX, OVX+ atorvastatin 2.5, 5, 10 mg/kg body weight and OVX+ ethinyl estradiol) and dosed with various concentrations of atorvastatin and vehicle control every day for a period of 5 weeks.
Histomorphometric analysis was performed using decalcified sections of the proximal tibia for cancellous bone and undecalcified sections for cortical bone. Briefly, tibiae were decalcified using 10% ethylene diaminetetraacetic acid (EDTA), followed by […] in ascending concentrations of ethanol and embedded in glycol methacrylate (GMA) resin. The specimens were sectioned at 5 to 10 μm and stained with TRAP and counter stained with methyl green for determination of cellular parameters. Bone histomorphometry was performed using an OsteoMeasure image analysis system connected via a video system to a suitable light microscope.

[3] = test system: osteoblast-osteoclast cocultures; conditions: 10 μM; cited from earlier work
[4] = normal and ovariectomized (OVX) rats; cited from earlier work

CC(C)c1c(C(=O)Nc2ccccc2)c(-c2ccccc2)c(-c2ccc(F)cc2)n1CC[C@@H](O)C[C@@H](O)CC(=O)O [atorvastatin, [R-(R*,R*)]-2-(4-fluorophenyl)-β,δ-dihydroxy-5-(1-methylethyl)-3-phenyl-4-[(phenylamino)carbonyl]-1H-pyrrole-1-heptanoic acid calcium salt (2:1) trihydrate]
number of TRAP-positive, multinucleated cells (RAW 264.7 cells; 0.01 nM to 1 μM): significantly reduced
inhibition at 0.01 µM (RAW 264.7 cells; Mus musculus, RAW264.7, 120 h, 0.01 micromolar, 5 days, RANKL 50 ng/mL, read-out: % inhibition of RANKL-induced multinucleated cell formation): ~80%
IC50 (RAW 264.7 cells; Mus musculus, RAW264.7, RAW cells, read-out: IC50, number of TRAP-positive, multinucleated cells): 170 nM
number of TRAP-positive, multinucleated cells ([1]; 0.01 nM to 1 μM): significantly reduced
IC50 ([1]; Mus musculus, primary murine bone marrow cell cultures, read-out: IC50, number of TRAP-positive, multinucleated cells): 0.43 nM
number of TRAP-positive cells formed [1]: able to block
effect when added on Day 5 compared with Day 3 postisolation ([1]; time course): much more pronounced
osteoclast numbers ([2]; 5 mg/kg orally, ovariectomized rats): significantly decreased
osteoclast numbers ([2]; 10 mg/kg orally, ovariectomized rats): significantly decreased
decrease of osteoclast formation compared with ethinyl estradiol ([2]; both 5 and 10 mg/kg doses, ethinyl estradiol positive control): more effective
number of osteoclasts formed ([2]; daily oral 2.5-10 mg/kg body weight, 5-week period, ovariectomized rats): significantly decreased

CC[C@H](C)C(=O)O[C@H]1C[C@@H](C)C=C2C=C[C@H](C)[C@H](CC[C@@H]3C[C@@H](O)CC(=O)O3)[C@H]21 [lovastatin]
tartrate-resistant acid phosphatase (TRAP) activity [3]: inhibits
increase in total bone area compared to BMP-2 or b-FGF [4]: greater dose-dependent increase

(3S,5S)-7-[2-(4-fluorophenyl)-5-isopropyl-3-phenyl-4-phenylcarbamoyl-pyrrol-1-yl]-3,5-dihydroxy-heptanoic acid calcium salt (2:1) [S,S-enantiomer of atorvastatin]
% inhibition of RANKL-induced multinucleated cell formation, compared with atorvastatin (RAW 264.7 cells; 10, 1, and 0.01 μM, 5 days, RANKL 50 ng/mL): significantly less % inhibition
number of TRAP-positive cells formed [1]: no differences were observed

B1: osteoprotegerin (protein, UniProt O00300 22-401, looked up)
Tumor necrosis factor …: ETFPPKYLHYDEETSHQLLCDKCPPGTYLKQHCTAKWKTVCAPCPDHYYTDSWHTSDECLYCSPVCKELQYVKQECNRTHNRVCECKEGRYLEIEFCLKHRSCPPGFGVVQAGTPERNTVCKRCPDGFFSNETSSKAPCRKHTNCSVFGLLLTQKGNATHDNICSGNSESTQKCGIDVTLCEEAFFRFAVPTKFTPNWLSVLVDNLPGTKVNAESVERIKRQHSSQEQTFQLLKLWKHQNKDQDIVKKIIQDIDLCENSVQRHIGHANLTFEQLRSLMESLPGKKVGAEDIEKTIKACKPSDQILKLLSLWRIKNGDQDTLKGLMHALKHSKTYHFPKTVTQSLKKTIRFLHSFTMYKLYQKLFLEMIGNQVQSVKISCL
notes: soluble decoy receptor for RANKL
number of TRAP-positive multinucleated cells formed by RANKL ([1]; 50 ng/mL added simultaneously with RANKL): completely inhibited
